The test deals with hROMK (hKir1.1) (Homo sapiens (Human), UniProt P48048). Briefly: Thallium Flux Assay (ROMK channel functional thallium flux, FLIPR-Tetra). The note with it: HEK293 cells stably expressing hROMK (hKir1.1); unit not given in Table 4 (IC50 potencies less than 1 μM); read-out: ROMK TI IC50. Format: cell-based. Here is the method: Cell Culture Conditions—HEK293 cells stably expressing hROMK (hKir1.1) were grown at 37° C. in a 10% CO2 humidified incubator in complete growth media: Dulbecco's Modified Eagle Medium supplemented with non-essential amino acids, Penicillin/Streptomycin/Glutamine, G418 and FBS. At >80% confluency, the media was aspirated from the flask and rinsed with 10 mL calcium/magnesium-free PBS. […] To dislodge the cell, the side of the flask was gently banged with one's hand. The cells completely titrated and then the cells were transferred to 25 mL complete media, centrifuged at 1,500 rpm for 6 min followed by resuspension in complete growth media and determine cell concentration. […] Under ideal growth conditions and appropriate tissue culture practices, this cell line is stable for 40-45 passages.
FluxOR Kit Components (Invitrogen F10017)
• FluxOR™ Reagent (Component A) • FluxOR™ Assay Buffer (Component B)—10× Concentrate • PowerLoad™ Concentrate (Component C)—100× Concentrate • Probenecid (Component D)—Lyophilized sample is kept at −20° C. Water soluble, 100× after solubilization in 1 mL water. […] Store at 4° C. • Thallium sulfate (Tl2SO4) Concentrate (Component G)—50 mM in water. […] Can be stored at room temperature • Stimulant Buffer (prepared at 5× final concentration in 1× FluxOR™Chloride-Free Buffer): 7.5 mM thallium sulfate and 0.75 mM potassium sulfate (to give a final assay concentration of 3 mM Thallium/0.3 mM potassium). Store at 4° C. when not in use. If kept sterile, this solution is good for months.
• 1. Seed HEK-hKir1.1 cells (50 μl at 20,000 cells/well) in 384-well PDL coated Microplates • 2. Allow cells to adhere overnight in humidified 37° C./10% CO2 incubator • 3. Completely remove cell growth media from microplate and replace with 25 μl loading buffer • 4. Incubate Microplate at room temperature, protected form light, for 90 min • 5. Remove loading buffer and replace with 25 μl 1× Assay Buffer±test compound. • 6. Incubate microplate at room temperature, protected from light, for 30 min • 7. […] Excitation=400 nm, Emission=460 & 580 nm. Collect data for ˜10 min.
Data Calculation—The fluorescence intensity of wells containing 3 μM of a standard control ROMK inhibitor of the present invention was used to define the ROMK-sensitive component of thallium flux. Fluorescence in the presence of test compounds was normalized to control values to provide % fluorescence change.

Chain of hROMK (hKir1.1) (P48048 whole entry): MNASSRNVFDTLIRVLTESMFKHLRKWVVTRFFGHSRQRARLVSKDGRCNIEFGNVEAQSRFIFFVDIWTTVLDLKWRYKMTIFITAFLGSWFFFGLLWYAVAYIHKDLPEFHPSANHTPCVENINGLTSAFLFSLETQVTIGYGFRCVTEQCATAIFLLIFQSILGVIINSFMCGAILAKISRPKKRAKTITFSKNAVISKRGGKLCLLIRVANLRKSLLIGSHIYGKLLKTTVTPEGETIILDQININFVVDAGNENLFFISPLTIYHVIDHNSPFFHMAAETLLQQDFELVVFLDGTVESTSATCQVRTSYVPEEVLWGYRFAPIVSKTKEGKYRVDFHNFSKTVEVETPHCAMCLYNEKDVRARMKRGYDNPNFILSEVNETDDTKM

Turning to `Cc1c([C@@H](O)CN2CCC3(CC2)CCN(c2ncc(-n4cnnn4)cn2)C3)ccc2c1COC2=O` [Example 15, (R)-5-(2-(2-(5-(1H-tetrazol-1-yl)pyrimidin-2-yl)-2,8-diazaspiro[4.5]decan-8-yl)-1-hydroxyethyl)-4-methylisobenzofuran-1(3H)-one], the IC50 amounted to 0.057 µM.
The same measure for `COc1cc(N2CC3(CCN(C[C@H](O)c4ccc5c(c4C)COC5=O)CC3)CC2=O)ccc1C#N` [Example 16, (R)-4-(8-(2-Hydroxy-2-(4-methyl-1-oxo-1,3-dihydroisobenzofuran-5-yl)ethyl)-3-oxo-2,8-diazaspiro[4.5]decan-2-yl)-2-methoxybenzonitrile]: 0.051 µM; for `Cc1c(CCN2CCC3(CC2)CCN(c2ccc(-c4ncon4)cn2)C3)ccc2c1COC2=O` [Example 17, 5-(2-(2-(5-(1,2,4-oxadiazol-3-yl)pyridin-2-yl)-2,8-diazaspiro[4.5]decan-8-yl)ethyl)-4-methylisobenzofuran-1(3H)-one]: 0.19 µM.
In the case of `Cc1c([C@@H](O)CN2CCC3(CC2)CCN(c2ccc(C#N)nn2)C3)ccc2c1COC2=O` [Example 18, (R)-6-(8-(2-Hydroxy-2-(4-methyl-1-oxo-1,3-dihydroisobenzofuran-5-yl)ethyl)-2,8-diazaspiro[4.5]decan-2-yl)pyridazine-3-carbonitrile], the IC50 amounted to 0.156 µM.
On to `CC1Cc2cc(C(O)CN3CCC4(CC3)CCN(c3ccc(C#N)cn3)C4)ccc2C(=O)O1` [Example 21, 6-(8-(2-Hydroxy-2-((R)-3-methyl-1-oxoisochroman-6-yl)ethyl)-2,8-diazaspiro[4.5]decan-2-yl)nicotinonitrile], for which the IC50 was determined as 0.0502 µM.
For `Cc1c([C@@H](O)CN2CCC3(CC2)CCN(c2ccc(S(C)(=O)=O)cn2)C3)ccc2c1COC2=O` [Example 22, (R)-5-(1-Hydroxy-2-(2-(5-(methylsulfonyl)pyridin-2-yl)-2,8-diazaspiro[4.5]decan-8-yl)ethyl)-4-methylisobenzofuran-1(3H)-one], the IC50 came to 0.0411 µM.
The same measure for `Cc1cc(N2CCC3(CCN(C[C@H](O)c4ccc5c(c4C)COC5=O)CC3)C2)cnc1S(C)(=O)=O` [Example 23, (R)-5-(1-Hydroxy-2-(2-(5-methyl-6-(methylsulfonyl)pyridin-3-yl)-2,8-diazaspiro[4.5]decan-8-yl)ethyl)-4-methylisobenzofuran-1(3H)-one]: 0.135 µM; for `N#Cc1ccc(N2CCC3(CCN(CC(O)c4cc5c(cc4C4CC4)C(=O)OC5)CC3)C2)nc1` (stereo not drawn) [Example 25, 6-(8-(2-(6-Cyclopropyl-1-oxo-1,3-dihydroisobenzofuran-5-yl)-2-hydroxyethyl)-2,8-diazaspiro[4.5]decan-2-yl)nicotinonitrile]: 0.0744 µM.
The same measure for `N#Cc1ccc(N2CCC3(CCN(CC(O)c4ccc5c(c4C4CC4)COC5=O)CC3)C2)nc1` (stereo not drawn) [Example 26, 6-(8-(2-(4-Cyclopropyl-1-oxo-1,3-dihydroisobenzofuran-5-yl)-2-hydroxyethyl)-2,8-diazaspiro[4.5]decan-2-yl)nicotinonitrile]: 0.458 µM; for `N#Cc1ccc(N2CCC3(CCN(CC4OCCc5c4ccc4c5COC4=O)CC3)C2)nc1` (stereo not drawn) [Example 27, 6-(8-((3-oxo-3,6,8,9-tetrahydro-1H-furo[3,4-f]isochromen-6-yl)methyl)-2,8-diazaspiro[4.5]decan-2-yl)nicotinonitrile]: 0.103 µM; for `Cc1c([C@@H](O)CN2C3CCC2CC2(CC(=O)N(c4ccc(C#N)cn4)C2)C3)ccc2c1COC2=O` (stereo partly drawn) [Example 29, 6-(8-((R)-2-Hydroxy-2-(4-methyl-1-oxo-1,3-dihydroisobenzofuran-5-yl)ethyl)-5′-oxo-8-azaspiro[bicyclo[3.2.1]octane-3,3′-pyrrolidin]-1′-yl)nicotinonitrile]: 0.198 µM.
Consider `CCS(=O)(=O)c1ccc(N2CCC3(CCN(C[C@H](O)c4ccc5c(c4C)COC5=O)CC3)C2)cn1` [Example 30, (R)-5-(2-(2-(6-(Ethylsulfonyl)pyridin-3-yl)-2,8-diazaspiro[4.5]decan-8-yl)-1-hydroxyethyl)-4-methylisobenzofuran-1(3H)-one], for which the IC50 was 0.271 µM.
The figure for `Cc1c([C@@H](O)CN2CCC3(CC2)CCN(c2ccc(S(C)(=O)=O)cc2)C3)ccc2c1COC2=O` [Example 31, (R)-5-(1-Hydroxy-2-(2-(4-(methylsulfonyl)phenyl)-2,8-diazaspiro[4.5]decan-8-yl)ethyl)-4-methylisobenzofuran-1(3H)-one] is 0.0413 µM.
Regarding `Cc1c([C@@H](O)CN2CCC3(CC2)CCN(c2ccc(S(C)(=O)=O)nn2)C3)ccc2c1COC2=O` [Example 32, (R)-5-(1-Hydroxy-2-(2-(6-(methylsulfonyl)pyridazin-3-yl)-2,8-diazaspiro[4.5]decan-8-yl)ethyl)-4-methylisobenzofuran-1(3H)-one], the IC50 came out at 0.177 µM.
Regarding `Cc1c([C@@H](O)CN2CCC3(CC2)CCN(c2cnc(S(C)(=O)=O)cn2)C3)ccc2c1COC2=O` [Example 33, (R)-5-(1-Hydroxy-2-(2-(5-(methylsulfonyl)pyrazin-2-yl)-2,8-diazaspiro[4.5]decan-8-yl)ethyl)-4-methylisobenzofuran-1(3H)-one], the IC50 came to 0.0441 µM.
Regarding `Cc1c([C@@H](O)CN2CCC3(CC2)CC(=O)N(c2ccc(S(C)(=O)=O)cn2)C3)ccc2c1COC2=O` [Example 34, (R)-8-(2-Hydroxy-2-(4-methyl-1-oxo-1,3-dihydroisobenzofuran-5-yl)ethyl)-2-(5-(methylsulfonyl)pyridin-2-yl)-2,8-diazaspiro[4.5]decan-3-one], the IC50 amounted to 0.0534 µM.
With `Cc1c([C@@H](O)CN2CCC3(CC2)CC(=O)N(c2cnc(S(C)(=O)=O)cn2)C3)ccc2c1COC2=O` [Example 35, (R)-8-(2Hydroxy-2-(4-methyl-1-oxo-1,3-dihydroisobenzofuran-5-yl)ethyl)-2-(5-(methylsulfonyl)pyrazin-2-yl)-2,8-diazaspiro[4.5]decan-3-one], the IC50 came to 0.0742 µM.
The figure for `Cc1nc(N2CCC3(CCN(C[C@H](O)c4ccc5c(c4C)COC5=O)CC3)C2)ccc1S(C)(=O)=O` [Example 36, (R)-5-(1-Hydroxy-2-(2-(6-methyl-5-(methylsulfonyl)pyridin-2-yl)-2,8-diazaspiro[4.5]decan-8-yl)ethyl)-4-methylisobenzofuran-1(3H)-one] is 0.0757 µM; for `Cc1c([C@@H](O)CN2CCC3(CC2)CC(=O)N(c2ncc(S(C)(=O)=O)s2)C3)ccc2c1COC2=O` [Example 37, (R)-8-(2-Hydroxy-2-(4-methyl-1-oxo-1,3-dihydroisobenzofuran-5-yl)ethyl)-2-(5-(methylsulfonyl)thiazol-2-yl)-2,8-diazaspiro[4.5]decan-3-one] it is 0.0875 µM.
With `Cc1c([C@@H](O)CN2CCC3(CC2)CCN(c2ncc(S(C)(=O)=O)s2)C3)ccc2c1COC2=O` [Example 38, (R)-5-(1-Hydroxy-2-(2-(5-(methylsulfonyl)thiazol-2-yl)-2,8-diazaspiro[4.5]decan-8-yl)ethyl)-4-methylisobenzofuran-1(3H)-one], the IC50 was 0.06 µM.
The same measure for `Cc1cc2c(cc1C(O)CN1CCC3(CC1)CCN(c1ccc(S(C)(=O)=O)cn1)C3)COC2=O` (stereo not drawn) [Example 39, 5-(1-Hydroxy-2-(2-(5-(methylsulfonyl)pyridin-2-yl)-2,8-diazaspiro[4.5]decan-8-yl)ethyl)-6-methylisobenzofuran-1(3H)-one]: 0.195 µM; for `COc1cc(C(O)CN2CCC3(CC2)CCN(c2ccc(S(C)(=O)=O)cn2)C3)c(Cl)cc1C#N` (stereo not drawn) [Example 40, 5-Chloro-4-(1-hydroxy-2-(2-(5-(methylsulfonyl)pyridin-2-yl)-2,8-diazaspiro[4.5]decan-8-yl)ethyl)-2-methoxybenzonitrile]: 0.168 µM.
The same measure for `Cc1c([C@@H](O)CN2CCC3(CC2)CCN(c2ncc(S(C)(=O)=O)cn2)C3)ccc2c1COC2=O` [Example 41, (R)-5-(1-Hydroxy-2-(2-(5-(methylsulfonyl)pyrimidin-2-yl)-2,8-diazaspiro[4.5]decan-8-yl)ethyl)-4-methylisobenzofuran-1(3H)-one]: 0.101 µM; for `Cc1c([C@@H](O)CN2CCC3(CC2)CCN(c2cnc(S(C)(=O)=O)cn2)C3=O)ccc2c1COC2=O` [Example 42, (R)-8-(2-Hydroxy-2-(4-methyl-1-oxo-1,3-dihydroisobenzofuran-5-yl)ethyl)-2-(5-(methylsulfonyl)pyrazin-2-yl)-2,8-diazaspiro[4.5]decan-1-one]: 0.216 µM.

By IC50 is commonly meant the concentration needed to halve the response being measured.
